Results as given in paper PMC6880192, “Structure–Effect Relationships of Novel Semi-Synthetic Cannabinoid Derivatives” (Frontiers in Pharmacology, 2019).

How the values were obtained:
CB1-/CB2-receptors = tested on: CB1-/CB2-receptors; design: method as in Rosenthaler et al. 2014; details: ref Rosenthaler et al. 2014; cited from earlier work
NFAT = test: PMA/IO-induced NFAT-luc activation in Jurkat T-cells; type: cell-based; details: 0.5–25 µmol/L
Experimental: Jurkat T-cells (10^6 cells per milliliter) were transiently transfected with plasmids that contained an NF-κB-dependent (KBF-luc) or NFAT-dependent (NFAT-luc) promotors fused to the luciferase gene using Lipofectin (Life Technologies, Carlsbad) according to the manufacturer’s instructions ([Yano et al. 1987]; [Durand et al. 1988]). Twenty-four hours after transfection, cells were stimulated for 30 min with increasing doses of the test compounds or WIN as a control (Tocris, Bristol). Then PMA (50 ng/ml)—for NFAT-luc—plus ionomycin (0.5 µg/ml) (Sigma-Aldrich, St. Louis) was added, followed by a 6 h incubation period.
(§1) After the stimulations and incubations, cells were lysed in a solution of 25 mmol Tris-phosphate (pH = 7.8), 8 mmol MgCl2, 1 mmol dithiothreitol (DTT), 1% Triton X-100, and 7% glycerol. The luciferase activity was measured with a Luciferase Assay Kit (Promega, Madison) according to the manufacturer’s instructions using an AutoLumat LB 9501 (Berthold Technologies, Bad Wildbad).

CB2-receptor [1] = molecular target: T1, CB2-receptor (Homo sapiens, UniProt P34972); test: cAMP-dependent luciferase assay in CHO-CB2-CRE-luc cells; type: cell-based
T1 construct: expressed in transfected cells; host or cells: CHO cells, stably transfected with CB2 cDNA (from IMIBIC) and transiently with CRE-luc
Experimental: (§2) Briefly, CHO cells were stably transfected with CB1- and CB2-receptor complementary DNAs (cDNAs) (kindly provided by IMIBIC). Around 10^5 transfected cells per milliliter were seeded in 24-well plates and transiently transfected with the plasmid CRE-luc using Roti-Fect (Carl Roth, Karlsruhe) following the manufacturer’s instructions. The cells were harvested after 24 h. Two transfected cell types resulted: CHO-CB1-CRE-luc and CHO-CB2-CRE-luc.
(§3) To test for agonistic activity at the CB1-receptor, the CHO-CB1-CRE-luc cells were stimulated for 6 h with increasing concentrations of the test compounds ([Bouaboula et al. 1997]). Forskolin (FSK), a strong CB-receptor-independent activator of adenylyl-cyclase was used at 10 µmol/L as a positive control. To investigate the antagonistic activity, the CHO-CB1-CRE-luc cells were pre-incubated for 15 min with the test compounds before stimulation for 6 h with 1 µmol/L WIN ([Zheng et al. 2013]). To investigate CB2-receptor agonistic activity, CHO-CB2-CRE-luc cells were pre-incubated for 15 min with increasing concentrations of the test substances and then for 6 h with 10 µmol/L FSK. WIN, a non-specific agonist at CB2-receptors, was used as a positive control. To confirm CB2-receptor agonistic activities of the test compounds, CHO-CB2-CRE-luc cells were pre-incubated with the specific CB2-receptor antagonist AM630 (1 µmol/L, 6-iodopravadoline; Cayman, distributed by Biozol, Hamburg) ([Ross et al. 1999]; [Zheng et al. 2013]) and then treated with increasing concentrations of the test substances.
as §1

RAW264.7 macrophages = test: MTT cytotoxicity assay; type: cell-based; details: RAW264.7, concentrations of 5 and 10 µmol/L
Source text: Cytotoxicity tests were done on CHO cells, Jurkat T-cells, or RAW264.7 macrophages using the MTT assay (Sigma-Aldrich, St. Louis) and on primary human monocytes with the alamarBlue assay (Thermo Fisher Scientific, Karlsruhe).

primary human monocytes = test: Anti-inflammatory effect on LPS-treated monocytes (ELISA); type: cell-based; details: LPS 10 ng/ml, 24 h
Experimental: Human peripheral blood monocytes were prepared from healthy donors who provided written informed consent at the local blood bank (University Hospital of Freiburg, Germany). Mononuclear cells were isolated by density gradient centrifugation according to standard protocol ([English and Andersen, 1974]) using lymphocyte separation medium, (PAN Biotech, Aidenbach). Cells were resuspended in RPMI-1640 medium (Invitrogen/Thermo Fisher Scientific, Karlsruhe) containing 10% human serum (Hexacell, Berlin). About 5 × 10^5 cells per milliliter were seeded in 24-well plates and incubated at 37°C and 5% CO2. The medium and the non-adherent cells were removed by washing with PBS and fresh RPMI medium, and 1% human serum was added to each well.
To test the anti-inflammatory effect of the test compounds, monocytes were incubated for 30 min with increasing doses of the test compounds. Then lipopolysaccharide (LPS) (10 ng/ml; Escherichia coli, Sigma-Aldrich, St. Louis) was added followed by a 24 h incubation period. The supernatants were removed and the levels of IL-1β, IL-6, IL-8, TNF-α, and prostaglandin E2 (PGE2) determined by enzyme-linked immunosorbent assay (ELISA) performed according to the manufacturer’s instructions (IL-1β from Hiss, Freiburg; IL-6, IL-8, and TNF-α from ImmunoTools, Friesoythe; and PGE2 from Cayman, distributed by Biozol, Hamburg). Stimulation with LPS alone was considered 100%.

CB2-receptor [2] = molecular target: T1, CB2-receptor; test: Competition binding against [3H]-CP55940, CB2 membranes; details: ratio of Ki values
CB1-receptor = molecular target: T2, CB1-receptor (Homo sapiens, UniProt P21554); test: cAMP-dependent luciferase assay in CHO-CB1-CRE-luc cells; type: cell-based; details: CHO-CB1-CRE-luc, summary classification
T2 construct: expressed in transfected cells; host or cells: CHO cells, stably transfected with CB1 cDNA (from IMIBIC) and transiently with CRE-luc
Experimental: as §2, §3, §1

T1 sequence (P34972 whole entry): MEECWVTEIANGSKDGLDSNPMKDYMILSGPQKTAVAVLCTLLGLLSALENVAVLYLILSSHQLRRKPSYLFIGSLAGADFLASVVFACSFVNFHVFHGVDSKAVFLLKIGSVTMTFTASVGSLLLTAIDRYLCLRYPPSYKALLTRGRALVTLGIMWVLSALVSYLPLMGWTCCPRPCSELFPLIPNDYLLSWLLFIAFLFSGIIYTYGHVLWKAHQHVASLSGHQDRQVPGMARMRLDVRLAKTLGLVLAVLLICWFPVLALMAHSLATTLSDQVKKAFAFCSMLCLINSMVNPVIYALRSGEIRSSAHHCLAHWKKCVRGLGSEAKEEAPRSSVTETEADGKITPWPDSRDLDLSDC
T2 sequence (P21554 whole entry): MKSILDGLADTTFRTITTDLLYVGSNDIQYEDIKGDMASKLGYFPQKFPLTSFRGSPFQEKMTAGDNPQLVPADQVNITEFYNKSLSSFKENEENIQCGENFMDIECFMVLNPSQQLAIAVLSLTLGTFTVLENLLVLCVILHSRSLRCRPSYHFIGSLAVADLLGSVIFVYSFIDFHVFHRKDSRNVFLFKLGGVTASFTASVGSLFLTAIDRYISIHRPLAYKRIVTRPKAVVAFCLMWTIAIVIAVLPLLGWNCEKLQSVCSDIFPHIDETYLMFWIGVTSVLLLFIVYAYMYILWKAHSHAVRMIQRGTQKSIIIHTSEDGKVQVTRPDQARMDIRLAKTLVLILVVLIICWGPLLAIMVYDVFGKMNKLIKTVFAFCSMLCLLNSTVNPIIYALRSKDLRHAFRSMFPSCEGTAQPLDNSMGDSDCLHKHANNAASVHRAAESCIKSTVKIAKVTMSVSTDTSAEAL

For `C=C(C)[C@@H]1CCC(C)=C[C@H]1c1c(O)cc(CCC)cc1O` [CBDV, (-)-trans-cannabidivarin], the “Affinity for CB1-/CB2-receptors” value (CB1-/CB2-receptors) is given as “poor affinity”.
For `C=C(C)[C@@H]1CCC(C)=C[C@H]1c1c(O)cc(CCCCC)cc1O` [CBD, (-)-trans-cannabidiol], the “Affinity for CB1-/CB2-receptors” value (CB1-/CB2-receptors) is given as “poor affinity”.
With `C=C(C)[C@@H]1CCC(C)=C[C@H]1c1c(O)cc(CCCCC)c(C(=O)OCCO)c1O` [2-HEC (1), 2-hydroxyethyl cannabidiolate] the “Inhibition of PMA/IO-induced NFAT activation” value (NFAT) was “significantly inhibited”, the “CB2-receptor agonistic activity (fold induction of CRE-luc)” value (CB2-receptor [1]; 15 min pre-incubation, then 10 µmol/L FSK for 6 h) was “dose dependency” and the “Effect on CB2” value (CB2-receptor [1]; CHO-CB2-CRE-luc, summary classification) was “Agonist”. For the same compound, the “CB2 agonistic effect compared with positive control WIN” value (CB2-receptor [1]; same dose as 1 µmol/L WIN) was “as strong as the same dose of the positive control”, the “Effect on cell viability” value (RAW264.7 macrophages) was “negative effect on cell viability” and the “LPS-induced IL-1β release” value (primary human monocytes) was “significantly inhibited”. For the same compound, the “LPS-induced IL-6 release” value (primary human monocytes) was “significantly inhibited”, the “LPS-induced TNF-α release” value (primary human monocytes) was “significantly inhibited” and the “Selectivity CB2/CB1” value (CB2-receptor [2]) was 10.5. For the same compound, the “Effect on CB1” value (CB1-receptor) was “Antagonist”.
